Measured values published in US20070224200A1, “Gm3 Synthase as a Therapeutic Target in Microvascular Complications of Diabetes” (priority 2004, published 2007).

How the values were obtained:
mesangial cells (RMC) = assay: Treatment with exogenous gangliosides, proliferation of mesangial cells; assay type: cell-based, rat; conditions: 50 μM, 4 days, total proteins
Experimental: (§1) To evaluate the effect of exogenous gangliosides on the proliferation of BRP and RMC, the cells were cultivated in 96-well plates. Exogenous glycolipids GM3, GM2, GM1 and GD1a, glucosylceramide and lactosylceramide (Matreya) were added to the complete culture medium in a final concentration of 50 μM in the form of complexes with BSA in a 1:1 ratio in DMEM/10 mM Hepes, pH 7.4. At the end of the treatment, the cells were washed twice with PBS and lysed for 30 minutes at 37° C. in 50 μl of a Ripa lysis buffer (PBS 10 mM, NP40 1% (Pierce, Perbio Science, Brebières, France), sodium deoxycholate 0.5%, SDS 0.1%, protease inhibitors 10 μl/ml). As the number of cells in our experiments was correlated with the total protein concentrations (cf. FIG. 1), the total proteins were measured using the BCA protein test (Pierce) in order to evaluate the cell proliferation.

pericytes (BRP) [1] = assay: Treatment with exogenous gangliosides, proliferation of pericytes; assay type: cell-based, bovine; conditions: 50 μM, 7 days, total proteins
Experimental: as §1

pericytes (BRP) [2] = assay: AGE effect on proliferation of pericytes (cell count, total proteins); assay type: cell-based, bovine; conditions: 3 μM AGE, 7 days
Source text: Bovine retinal pericytes (BRP) were isolated from bovine retinal micro-vessels as described previously (Lecomte et al., 1996). Briefly, the retinas were obtained by dissection under sterile conditions from enucleated bovine eyes obtained from a local abattoir. After the contaminating pigmented epithelial cells of the retina had been removed, the retinas (2 per culture dish) were sliced into small pieces and homogenised in a Dounce homogeniser in a Hanks balanced saline solution (Ca^2+/Mg^2+-free oxygenated HBSS supplemented with Hepes 10 mM, pH 7.4, antibiotics 1%, bovine serum albumin (BSA, Sigma, Saint-Quentin Fallavier, France) 0.5%). […] The BRP cultures were 100% pure, as characterised by their polygonal irregular morphology with pseudopodia and their growth into non-apposed cells, and as evaluated by positive labelling for both α1-actin and a specific glycolipid antigen (3G5 antibody) and by negative labelling for the von Willebrand factor expressed in the endothelial cells (Lecomte et al., 1996). […]
(§2) At the end of the treatment, the cells were harvested with trypsin and the cell residues were washed twice with a phosphate buffered saline solution (iced PBS) (Sigma). For each sample, one aliquot of cells was counted using a haemocytometer in order to determine the number of cells. […]

[3] = system: gangliosides in mesangial cells (RMC); assay: Ganglioside profile in mesangial cells treated with AGE (HPTLC); assay type: cell-based, rat; conditions: 3 μM AGE, resorcinol staining
Experimental: (§3) The AGE and the BSA control (final concentration of 3 μM) were added to the culture medium 24 hours after inoculation. Each cell type was treated for one passage (about 7 days for the BRP and 4 days for the RMC). The culture medium was replaced with a fresh medium every two days.
(§4) For metabolic labelling of the gangliosides, 0.2 μCi/ml or 1 μCi/ml of [^14C(U)]-D-galactose (329.5 mCi/mmol) (PerkinElmer Life Sciences, Boston, Mass.) was added to the culture medium overnight for the labelling experiments with a high specific activity (GM2 and GM1 measuring experiment). The cells (5-8×10^5 pericytes or 12-20×10^5 mesangial cells) were then harvested by trypsinisation and washed three times in PBS. The gangliosides were extracted from the cell residues by the method described by Bouchon et al. (Bouchon et al., 1990), modified by Natalizio et al. (Natalizio et al., 2002). Briefly, the cell residues were dispersed in 2 ml of chloroform (C)/methanol (M) (1:1, v/v), mixed vigorously and extracted overnight at 4° C. After centrifugation, the residues were extracted twice with 2 ml of the same solvent. The pooled extracts of total lipids were dried by evaporation and separated with the aid of a 1 mM C/M/PBS solution (10:10:7, v/v/v). The upper phases, containing the gangliosides, were then desalted on a C18 silica gel column (Waters Corporation, Milford, Mass.) and analysed by HPTLC (Merck, Darnstadt, Germany). The plates were developed in 0.2% C/M/CaCl2 (55:45:10, v/v/v). The gangliosides were visualised by autoradiography using a phosphorus screen and a Storm 820 (Molecular Dynamics, Amersham Pharmacia Biotech, Piscataway, United States) and by labelling with resorcinol (specific stain for gangliosides: resorcinol 0.3% (Sigma), CuSO4 0.03%, HCl 30%) using an Image Master VDS-CL (Amersham Pharmacia Biotech). Quantification was performed using an Image Quant (Molecular Dynamics). As GT1b was absent from the ganglioside profiles of both the BRP and the RMC, it was added to the samples as an internal standard prior to lipid extraction.

[4] = system: renal mesangial cells (RMC); assay: AGE effect on proliferation of renal mesangial cells (cell count, total proteins); assay type: cell-based, rat; conditions: 3 μM AGE, 4 days
Source text: Rat renal mesangial cells (RMC) were obtained from purified glomeruli of young male Wistar rats (Charles River, l'Arbresle, France). Briefly, cortex fragments were isolated from rat kidneys freshly removed under sterile conditions. Small pieces were mechanically forced through a 230 μm mesh with HBSS buffer. The glomeruli, passed through this mesh, were then forced through a 73.7 μm mesh. Finally, they were placed on a 70 μm mesh and placed in 6 cm dishes covered with fibronectin (4 dishes for 2 renal glomeruli) in DMEM supplemented with 20% of foetal bovine serum, 1% of glutamine and 1% of penicillin/streptomycin. After the attachment period, the excrescence of RMC from glomeruli occurred after three weeks and the cells were then cultivated to the fifth passage in order to remove the residual epithelial and endothelial cells. The RMC are characterised by morphological criteria (star shape, wick shape when they are confluent) and by positive labelling with vimentin, smooth muscle α-actin and Thy-1 antigen. […]
as §2

GM3 synthase [5] = assay: GM3 synthase activity in homogenates of mesangial cells treated with AGE; assay type: cell-based, rat; conditions: 3 μM AGE, 4 days, vs BSA control
Experimental: as §3
(§5) At the end of the treatment, the cells were washed with PBS, incubated for 20 minutes at 4° C. in 50 μl of lysis buffer (20 mM sodium cacodylate, pH 6.6 (Sigma), 0.2% of Triton X-100, 1 mM EDTA, 10 μl/ml of protease inhibitors, Calbiochem, La Jolla, Calif., United States) and then collected by scraping. Four dishes of BRP (about 2-3×10^6 cells) and three dishes of RMC (about 3-6×10^6 cells) were pooled. The cell lysates were centrifuged at 10,000 g for 5 minutes and the proteins in the supernatants were used to measure the GM3 synthase activity. The glomerular residues were mechanically homogenised with a syringe in 25 mM Hepes containing 1 mM EDTA and 10 μl/ml of protease inhibitors. The homogenates were then centrifuged at 1000 g for 2 minutes and the postnuclear supernatant was used to measure the GM3 synthase activity. Equivalent amounts of proteins for each sample (about 500 μg for the cells and 100 μg for the glomeruli) were used to perform the test. […]

GM3 synthase [6] = assay: GM3 synthase activity in homogenates of pericytes treated with AGE; assay type: cell-based, bovine; conditions: 3 μM AGE, 7 days, vs BSA control
Experimental: as §3, §5

[7] = system: gangliosides in pericytes (BRP); assay: Ganglioside profile in pericytes treated with AGE (HPTLC); assay type: cell-based, bovine; conditions: 3 μM AGE
Experimental: as §3, §4

GM3 synthase [8] = assay: GM3 synthase activity in RMC transfected with GM3 synthase siRNA; assay type: cell-based, rat
Experimental: as §5, with “inhibitors.” for “inhibitors. The homogenates were then centrifuged at 1000 g for 2 minutes and the postnuclear supernatant was used to measure the GM3 synthase activity. Equivalent amounts of proteins for each sample (about 500 μg for the cells and 100 μg for the glomeruli) were used to perform the test.”
To block the GM3 synthase activity, RMC were cultivated in 6-well culture plates up to 30% confluence and then transfected with an interfering RNA (siRNA) specific for GM3 synthase, which was designed against a rat cDNA sequence (Ambion, Huntingdon, UK) using an Oligofectamine reagent (Invitrogen Corporation). […] After 72 h of transfection, the GM3 synthase activity was measured on homogenates of transfected cells. The proliferation was then evaluated on the cells transfected with the siRNA. […] The cells were then washed twice with PBS and lysed in a Ripa lysis buffer and the proteins were measured in order to evaluate the cell proliferation.

RMC = assay: Proliferation of siRNA-transfected RMC treated with AGE; assay type: cell-based, rat; conditions: 400 nM siRNA, then 3 μM AGE 3 days, total proteins
Experimental: To block the GM3 synthase activity, RMC were cultivated in 6-well culture plates up to 30% confluence and then transfected with an interfering RNA (siRNA) specific for GM3 synthase, which was designed against a rat cDNA sequence (Ambion, Huntingdon, UK) using an Oligofectamine reagent (Invitrogen Corporation). The GM3 synthase antisense sequence used was GGGUUAUUCUGAACAUGUUtt (SEQ ID No: 5). In preliminary experiments, a dose-response study was carried out by transfecting the cells with increasing concentrations of siRNA (0-800 nM). After 72 h of transfection, the GM3 synthase activity was measured on homogenates of transfected cells. The proliferation was then evaluated on the cells transfected with the siRNA. For this purpose, 24 hours after transfection with 400 nM siRNA, the cells were treated with 3 μM BSA control or AGE (3 days). The cells were then washed twice with PBS and lysed in a Ripa lysis buffer and the proteins were measured in order to evaluate the cell proliferation.

[9] = pericytes, resorcinol staining, vs BSA control

**Q.** Which “effect on proliferation of mesangial cells (in words)” value (mesangial cells (RMC)) does the source give for “α-N-acetyl-neuraminyl-2,3-β-D-galactosyl-1,4-β-D-glucosylceramide [GM3]” here?
**A.** Its value is “no significant effect”.

**Q.** What about the “effect on proliferation of pericytes (in words)” value (pericytes (BRP) [1]) of the same substance?
**A.** Its value is “weakly inhibited”.

**Q.** What does the source list for lactosylceramide?
**A.** effect on proliferation of mesangial cells (in words) (mesangial cells (RMC)): no effect; effect on proliferation of pericytes (in words) (pericytes (BRP) [1]): no effect

**Q.** How did the “effect on proliferation of mesangial cells (in words)” value (mesangial cells (RMC)) turn out when glucosylceramide was run?
**A.** Its value is “no effect”.

**Q.** What about the “effect on proliferation of pericytes (in words)” value (pericytes (BRP) [1]) of the same substance?
**A.** The value was “no effect”.

**Q.** Which results are given for “AGE: prepared by incubating bovine serum albumin with 100 mM methylglyoxal at 37° C. for 50 hours”?
**A.** reduction of the number of pericytes (pericytes (BRP) [2]; cell count, vs BSA control): 33%; total proteins (pericytes (BRP) [2]; pericytes): decreased in correlation with the number of cells; GD1a levels [3]: not affected; increase in GM3 ([3]; vs BSA control): 33%; reduction of GD3 ([3]; vs BSA control): 30%; reduction of the number of mesangial cells ([4]; cell count, vs BSA control): 40%; total proteins ([4]; mesangial cells): decreased in correlation with the number of cells; increase of GM3 synthase activity (factor) (GM3 synthase [5]): about 1.5; increase of GM3 synthase activity (factor) (GM3 synthase [6]): about 1.8; increase in GM2 ([7]; BRP, [14C]-D-galactose labelling, autoradiography): 55%; increase in series a ganglioside GM1 [7, 9]: about 40%; increase in series a ganglioside GM3 [7, 9]: about 40%; reduction of series b ganglioside GD3 [7, 9]: 24%

**Q.** What does the source list for “GGGUUAUUCUGAACAUGUUtt (guide GGGUUAUUCUGAACAUGUUTT; chemistry not given here) [GM3 synthase siRNA]”?
**A.** inhibition of GM3 synthase activity (GM3 synthase [8]; RMC transfected with siRNA): 50%; inhibition of GM3 synthase activity (in words) (GM3 synthase [8]; RMC, preliminary experiments, siRNA 0-800 nM, 72 h): effectively inhibited; effects of AGE on the proliferation of the RMC (RMC): partially inhibited
